Laboratory results: ChEMBL document CHEMBL5036334, “Balanced dual acting compounds targeting aromatase and estrogen receptor α as an emerging therapeutic opportunity to counteract estrogen responsive breast cancer” (Eur J Med Chem, 2021)

Experiments:
Estrogen receptor = target: T1, Estrogen receptor (Homo sapiens, UniProt P03372); test: Binding affinity to human ERalpha measured after 2 hrs by fluorescence polarization plate reader
T1 sequence (P03372 whole entry): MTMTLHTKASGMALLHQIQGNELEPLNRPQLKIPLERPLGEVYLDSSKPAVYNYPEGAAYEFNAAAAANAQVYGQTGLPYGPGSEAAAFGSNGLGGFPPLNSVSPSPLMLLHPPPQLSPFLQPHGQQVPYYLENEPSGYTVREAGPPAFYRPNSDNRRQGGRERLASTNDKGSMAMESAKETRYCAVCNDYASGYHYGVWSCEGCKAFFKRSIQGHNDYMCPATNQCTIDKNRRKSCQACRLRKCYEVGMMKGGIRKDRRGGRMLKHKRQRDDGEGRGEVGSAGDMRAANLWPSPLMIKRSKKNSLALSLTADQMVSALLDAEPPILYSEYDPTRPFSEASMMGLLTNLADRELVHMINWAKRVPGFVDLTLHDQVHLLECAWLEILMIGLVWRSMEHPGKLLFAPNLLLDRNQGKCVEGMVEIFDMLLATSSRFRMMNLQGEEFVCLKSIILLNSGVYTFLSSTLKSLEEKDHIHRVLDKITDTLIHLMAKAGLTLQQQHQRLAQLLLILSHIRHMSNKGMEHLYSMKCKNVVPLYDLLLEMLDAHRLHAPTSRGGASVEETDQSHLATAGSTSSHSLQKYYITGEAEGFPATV

MCF7 = test: Antiproliferative activity against human MCF7 cells assessed as reduction in cell viability after 72 hrs by cell counter method; format: functional, cell-based; conditions: MCF7, 72 h
MCF-10A = test: Antiproliferative activity against human MCF-10A cells assessed as reduction in cell viability after 72 hrs by cell counter method; format: functional, cell-based
Aromatase = target: T2, Aromatase (Homo sapiens, UniProt P11511); test: Inhibition of human aromatase assessed as reduction in fluorescence intensity preincubated with NADPH regenerating system for 10 mins followed by substrate addition incubated for 60 mins by fluorescence based microplate reader analysis
T2 sequence (P11511 whole entry): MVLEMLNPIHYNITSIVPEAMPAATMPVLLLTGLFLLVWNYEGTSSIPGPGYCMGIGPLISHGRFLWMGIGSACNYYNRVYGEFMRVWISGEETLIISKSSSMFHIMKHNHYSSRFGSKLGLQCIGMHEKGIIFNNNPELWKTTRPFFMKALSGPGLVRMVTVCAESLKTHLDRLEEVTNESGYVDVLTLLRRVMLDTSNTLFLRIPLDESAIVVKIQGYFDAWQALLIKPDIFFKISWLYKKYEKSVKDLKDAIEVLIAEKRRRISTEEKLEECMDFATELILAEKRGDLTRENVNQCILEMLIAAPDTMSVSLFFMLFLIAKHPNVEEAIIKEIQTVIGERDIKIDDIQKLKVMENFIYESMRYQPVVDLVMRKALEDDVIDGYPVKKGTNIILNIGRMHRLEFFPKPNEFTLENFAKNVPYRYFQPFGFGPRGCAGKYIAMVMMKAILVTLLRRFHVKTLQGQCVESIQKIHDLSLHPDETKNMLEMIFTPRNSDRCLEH

| Compound | IC50 (Estrogen receptor) | IC50 (MCF7) | IC50 (MCF-10A) | IC50 (Aromatase) |
| --- | --- | --- | --- | --- |
| CCC(CCc1c[nH]cn1)=C(c1ccc(O)cc1)c1ccc(O)cc1 | 0.197 µM | 37.1 µM | > 100 µM | 0.052 µM |
| CC(Cc1cccnc1)=C(c1ccc(O)cc1)c1ccc(O)cc1 | 1.77 µM | 41.2 µM | 58.7 µM | 0.861 µM |
| CCC(=C(c1ccc(O)cc1)c1ccc(O)cc1)c1c[nH]cn1 | 1.07 µM | 60 µM | > 100 µM | 0.952 µM |
| CC(=C(c1ccc(O)cc1)c1ccc(O)cc1)c1cccnc1 | 0.076 µM | 5.3 µM | 41.7 µM | > 10 µM |
| CCC(CCc1cccnc1)=C(c1ccc(O)cc1)c1ccc(O)cc1 | 0.033 µM | 42.1 µM | 20 µM | 0.9 µM |
| CC/C(=C(\c1ccc(O)cc1)c1ccc(OCCNC)cc1)c1ccccc1 [ENDOXIFEN] | 0.03 µM | 0.1 µM | > 10 µM | > 10 µM |
| N#Cc1ccc(C(c2ccc(C#N)cc2)n2cncn2)cc1 [LETROZOLE] | > 10 µM | 4.1 µM | > 10 µM |  |
| CC(Cn1ccnc1)=C(c1ccc(O)cc1)c1ccc(O)cc1 | 4.95 µM | 37 µM | 52.5 µM | 1 µM |
| CCC(=C(c1ccc(O)cc1)c1ccc(O)cc1)c1cccnc1 | > 10 µM | 10 µM | 17 µM | 1.25 µM |
| CC(CCc1cccnc1)=C(c1ccc(O)cc1)c1ccc(O)cc1 | 0.313 µM | > 100 µM | > 100 µM | 3.24 µM |
| CC(=C(c1ccc(O)cc1)c1ccc(O)cc1)c1c[nH]cn1 | 0.223 µM | 58 µM | > 100 µM | 0.596 µM |
| CC(CCc1c[nH]cn1)=C(c1ccc(O)cc1)c1ccc(O)cc1 | 1.74 µM | 39.8 µM | 50.4 µM | 0.063 µM |
| CCC(Cn1ccnc1)=C(c1ccc(O)cc1)c1ccc(O)cc1 | 1.8 µM | 24.3 µM | 34.7 µM | 0.035 µM |
| CCC(Cc1cccnc1)=C(c1ccc(O)cc1)c1ccc(O)cc1 | 0.019 µM | 27.6 µM | > 100 µM | 0.023 µM |
